Results published in patent publication US20080227806A1, “Novel Drugs for Dementia” (AMERICAN LIFE SCIENCE PHARMACEUTICALS, priority 2005, published 2008).
“And” between values parts separate entries of the source, which are not always exact repeats. Equal values may be shown once.

Columns and labels:
hippocampus neurons = details: primate ischemic animal model; cited from earlier work
total Aβ (Ab40 and Ab42) = experiment: Brain total Aβ by ELISA after icv infusion into guinea pig brains; assay type: in vivo; details: constant icv infusion, 1 mg/ml
Description: (§1) In vivo icv administration of protease inhibitors into guinea pig brains. Guinea pigs (Harley strain, 300-500 grams) were obtained from Charles River (Wilmington, Mass.). The animals were given free access to food and water before and during the experiment. An ALZET osmotic mini-pump (ALZET company, Cupertino, Calif.) was implanted subcutaneously in the mid-scapular area of the back of each animal. A catheter was connected to the osmotic mini-pump and inserted into the lateral ventricle of the brain (using a brain infusion kit manufactured by ALZET).
(§2) E64d or CA074Me (from CalBiochem, San Diego, Calif.) were each administered to guinea pig brains by icv minipump infusion at a rate of […] with each compound at 1 mg/ml in saline (with 1.5% DMSO). Each e64d and control group consisted of five animals; each CA074Me and control group consisted of ten animals. Continuous infusion was conducted for 7 days and 30 days. At the end of each infusion period, animals were sacrificed and half the brain was prepared as extracts for ELISA measurement of Aβ peptide levels conducted in triplicate with Ab ELISAs (from Biosource International). The other half brain was used for isolation of synaptosome preparations and Ab analyses.
(§3) Brain Extracts. Brain extracts were prepared by subjecting fresh tissues to homogenization at 1:10 w/v in guanidine buffer consisting of 5 M guanidine-HCl in 50 mM Tris-HCl, pH 8.3 (buffer reagents from Sigma-Aldrich, St. Louis, Mo.). Homogenates were agitated at room temperature for 3-4 hours, then stored at −20° C. The day before the ELISA assay, the tissue samples were diluted further by 1:10 for a final guanidine concentration of 0.5 M. These diluted homogenates were then centrifuged at 14,000 rpm for 20 minutes at 4° C. and supernatants were collected for measurement of total Ab, and Aβ40 and Aβ42 separately, by ELISA assay. Isolation of synaptosomes from brain. Synaptosomes were prepared by homogenization of fresh brain tissue in isotonic sucrose (320 mM), pH 7.4, 1 mM EDTA, 0.25 mM dithiothreitol, and 30 U/ml RNAse inhibitor. […] For quantitation of Aβ peptides, ELISA assays were used to measure Aβ levels. […] CTFβ fragments derived from APP were analyzed by western blots with antibody MAB 1560 (Chemicon, Temecula, Calif.). The sAPPα fragment derived from APP was analyzed by western blots with antibody MAB 343 (Chemicon, Temecula, Calif.). […]
(§4) Data Analyses. Data were analyzed by one-way analysis of variance for analyses of statistical significance of the effects of compounds on Ab levels, with p<0.05 indicating statistical significance, using GraphPad Prism software program. Following ANOVA analyses among treatment groups, individual group values for Ab levels were analyzed using Dunnett's multiple comparison test. […]

CTFβ = experiment: Brain CTFβ by western blot densitometry after icv infusion; assay type: in vivo; details: guinea pig, 7 days, densitometric scanning of western blots
Description: (§5) In vivo icv administration of protease inhibitors into guinea pig brains. Guinea pigs (Harley strain, 300-500 grams) were obtained from Charles River (Wilmington, Mass.). The animals were given free access to food and water before and during the experiment. An ALZET osmotic mini-pump (ALZET company, Cupertino, Calif.) was implanted subcutaneously in the mid-scapular area of the back of each animal. A catheter was connected to the osmotic mini-pump and inserted into the lateral ventricle of the brain (using a brain infusion kit manufactured by ALZET). […]
(§6) Brain Extracts. […] For quantitation of Aβ peptides, ELISA assays were used to measure Aβ levels. […] CTFβ fragments derived from APP were analyzed by western blots with antibody MAB 1560 (Chemicon, Temecula, Calif.). The sAPPα fragment derived from APP was analyzed by western blots with antibody MAB 343 (Chemicon, Temecula, Calif.). […]
as §4

synaptosome Aβ = experiment: Synaptosome total Aβ by ELISA after icv infusion; assay type: in vivo; details: guinea pig
Description: as §1, §2, §3, §4

sAPPα = experiment: Brain sAPPα by western blot densitometry after icv infusion; assay type: in vivo; details: guinea pig, 7 days, densitometric scanning of western blots
Description: as §5, §6, §4

Aβ42 = experiment: Brain Aβ42 by specific ELISA after icv infusion; assay type: in vivo; details: guinea pig, 7 days
Description: as §5, §6, §4

Aβ40 = experiment: Brain Aβ40 by specific ELISA after icv infusion; assay type: in vivo; details: guinea pig, 7 days
Description: as §5, §6, §4

[1] = Japan; cited from earlier work
[2] = Phase III study; cited from earlier work
[3] = rats, high dose; cited from earlier work

SMILES	protection of brain neurons during ischemia (hippocampus neurons)	reduction of brain total Aβ relative to control (total Aβ (Ab40 and Ab42); 7 days)	reduction of brain total Aβ relative to control (total Aβ (Ab40 and Ab42); 30 days)	reduction in brain CTFβ relative to controls (CTFβ)	reduction of synaptosome Aβ relative to controls (synaptosome Aβ; 7 days)	reduction of synaptosome Aβ relative to controls (synaptosome Aβ; 30 days)	increase in brain sAPPα above control (sAPPα)	reduction of Aβ42 in brain (Aβ42)	reduction of Aβ40 in brain extracts (Aβ40)	Phase I clinical trial outcome [1]	efficacy for muscular dystrophy [2]	liver toxicity [3]
CCCNC(=O)C1OC1C(=O)NC(C(=O)N1CCCC1C(=O)O)C(C)CC (centres unmarked) [CA074, 1-{3-methyl-2-[(3-propylcarbamoyl-oxiranecarbonyl)-amino]-pentanoyl}-pyrrolidine-2-carboxylic acid]	protect hippocampus neurons from damage											
CCCNC(=O)[C@H]1O[C@@H]1C(=O)N[C@H](C(=O)N1CCC[C@H]1C(=O)OC)[C@@H](C)CC [CA074Me, L-Proline, N[[(2S,3S)3[(propylamino)carbonyl]oxiranyl]carbonyl]-L-isoleucyl-, methyl ester]		57%	62%	45% and 44%	62%	74%	60%	56%	47%			
CCOC(=O)[C@H]1O[C@@H]1C(=O)N[C@@H](CC(C)C)C(=O)NCCC(C)C [E64d, oxiranecarboxylic acid, 3-[[[(1S)-3-methyl-1-[[(3-methylbutyl)amino]carbonyl]butyl]amino]carbonyl], ethyl ester]		31%	55%		27%	50%				successfully passed Phase I clinical trials	low efficacy for muscular dystrophy	liver toxicity was found
CC(C)CCNC(=O)C(CC(C)C)NC(=O)C1OC1C(=O)O (centres unmarked) [e64c, 3-[3-methyl-1-(3-methyl-butylcarbamoyl)-butylcarbamoyl]-oxirane-2-carboxylic acid]	protect hippocampus neurons from damage											
